The text below walks through data of patent publication USRE48842E1, “Pyrimido-pyrrolo-oxazine-dione compound inhibitors of the cystic fibrosis transmembrane conductance regulator protein and uses therefor” (The Regents of the University of California, priority 2011, dated 2021).

In brackets after ≈: the same amount, converted by molar mass. Read-outs that look alike come from different tables or passages of the source.

For one series, the target named is human wildtype CFTR (Homo sapiens, UniProt P13569). The experiment in a line: Fluorescence plate reader assay of CFTR inhibition (iodide influx). Conditions: Determined by micro-plate reader assay; FRT cells co-expressing human wild type CFTR and YFP-H148Q. Format: cell-based. Set-up: expressed in transfected cells; host or cells: Fischer rat thyroid (FRT) cells. Here is the method: Cell Culture and Plate Reader Assay of CFTR Inhibition—Fischer rat thyroid (FRT) cells co-expressing human wild type CFTR and the halide indicator YFP-H148Q were cultured in 96-well black-walled microplates (Corning Costar) at a density of 20,000 cells per well in Coon's modified F12 medium containing 10% fetal bovine serum, 2 mM L-glutamine, 100 U/mL penicillin and 100 μg/mL streptomycin. CFTR chloride conductance was assayed at 48 h after plating on a FluoStar fluorescence plate reader (BMG Lab Technologies) as described (see, e.g., Ma et al., J Clin Invest. 2002, supra). Each well was washed 3 times with PBS, leaving 60 μL PBS. Test compounds were added and incubated with the cells for 45 min. Then, 5 μL of a CFTR-activating cocktail (10 μM forskolin, 100 μM IBMX, 20 μM apigenin in PBS) was added. After 15 min, each well was assayed for iodide influx by recording fluorescence continuously (200 ms per point) for 2 s (baseline) and then for 10 s after rapid addition of 160 μL of isosmolar PBS in which 137 mM chloride was replaced by iodide. The initial rate of iodide influx was computed from fluorescence data by non-linear regression.
Initial testing of the compounds for the capability to inhibit CFTR was performed using a plate-reader assay in which iodide influx was measured in FRT cells co-expressing human wild type CFTR and the iodide-sensing yellow fluorescent protein YFP-H148Q/1152L. […] Table B below provides IC50 values for PPQ and BPO compounds.
The relative IC50 values obtained from the plate reader assay are useful for comparisons. Absolute IC50 values obtained from the plate-reader assay are approximate, generally underestimating compound potency because of assay non-linearities, pH-dependent YFP fluorescence, the use of iodide instead of chloride, and compound dilution at the start of the assay (see, e.g., Galietta et al., Am. J. Physiol. Cell Physiol. 281:C1734-42 (2001)).

A short description of the next series: Aqueous solubility. Format: physicochemical.
Series [1] is described as follows: Mouse pharmacokinetics and renal accumulation (LC/MS). Format: in vivo. Here is the method: Mouse Pharmacokinetics and Renal Accumulation—A compound of structure (I) was formulated at 1 mg/mL in 5% DMSO, 2.5% Tween-80 and 2.5% PEG400 in H2O, based on formulations used for compounds of similar polarity and chemical properties. Male mice in a CD1 genetic background (age 8-10 weeks, 25-35 g) were administered 300 μL of the BPO-27 formulation by intraperitoneal injection. At specified times kidneys were removed following renal arterial perfusion with PBS. Kidneys were weighed, mixed with acetic acid (100 μl per 1 g tissue) and ethyl acetate (10 mL per 1 g tissue), and homogenized. The homogenate was centrifuged at 3,000 rpm for 15 min. Calibration standards were prepared in kidney homogenates from control mice to which was added known amounts of BPO-27. The ethyl acetate-containing supernatant was dried under nitrogen and the residue was reconstituted in acetonitrile:H2O (3:1) containing 0.1% formic acid. For analysis of blood and urine, fluids were diluted with equal volume of water and extracted with ethyl acetate. LC/MS analysis was carried out as described herein.
PPQ-102 was undetectable in serum, kidney, and urine at 30-60 min after intravenous bolus administration of 300 μg PPQ-102 in mice using an LC/MS assay with sensitivity better than 100 nM. […] To improve on the drug-like properties of PPQ-102, a series of compound analogs were synthesized and tested.
BPO-27 pharmacokinetics in mice was measured following bolus intraperitoneal administration in an aqueous formulation in 5% DMSO, 2.5% Tween-80 and 2.5% PEG400 in water. BPO-27 was measured by LC/MS in kidney, blood and urine. […] The assay was linear with a detection sensitivity of better than 100 nM BPO-27. […] FIG. 11C summarizes the deduced BPO-27 concentrations in kidney, blood and urine over time. The t1/2 for disappearance of the original compound was approximately 2 h.

Chain of human wildtype CFTR (P13569 whole entry): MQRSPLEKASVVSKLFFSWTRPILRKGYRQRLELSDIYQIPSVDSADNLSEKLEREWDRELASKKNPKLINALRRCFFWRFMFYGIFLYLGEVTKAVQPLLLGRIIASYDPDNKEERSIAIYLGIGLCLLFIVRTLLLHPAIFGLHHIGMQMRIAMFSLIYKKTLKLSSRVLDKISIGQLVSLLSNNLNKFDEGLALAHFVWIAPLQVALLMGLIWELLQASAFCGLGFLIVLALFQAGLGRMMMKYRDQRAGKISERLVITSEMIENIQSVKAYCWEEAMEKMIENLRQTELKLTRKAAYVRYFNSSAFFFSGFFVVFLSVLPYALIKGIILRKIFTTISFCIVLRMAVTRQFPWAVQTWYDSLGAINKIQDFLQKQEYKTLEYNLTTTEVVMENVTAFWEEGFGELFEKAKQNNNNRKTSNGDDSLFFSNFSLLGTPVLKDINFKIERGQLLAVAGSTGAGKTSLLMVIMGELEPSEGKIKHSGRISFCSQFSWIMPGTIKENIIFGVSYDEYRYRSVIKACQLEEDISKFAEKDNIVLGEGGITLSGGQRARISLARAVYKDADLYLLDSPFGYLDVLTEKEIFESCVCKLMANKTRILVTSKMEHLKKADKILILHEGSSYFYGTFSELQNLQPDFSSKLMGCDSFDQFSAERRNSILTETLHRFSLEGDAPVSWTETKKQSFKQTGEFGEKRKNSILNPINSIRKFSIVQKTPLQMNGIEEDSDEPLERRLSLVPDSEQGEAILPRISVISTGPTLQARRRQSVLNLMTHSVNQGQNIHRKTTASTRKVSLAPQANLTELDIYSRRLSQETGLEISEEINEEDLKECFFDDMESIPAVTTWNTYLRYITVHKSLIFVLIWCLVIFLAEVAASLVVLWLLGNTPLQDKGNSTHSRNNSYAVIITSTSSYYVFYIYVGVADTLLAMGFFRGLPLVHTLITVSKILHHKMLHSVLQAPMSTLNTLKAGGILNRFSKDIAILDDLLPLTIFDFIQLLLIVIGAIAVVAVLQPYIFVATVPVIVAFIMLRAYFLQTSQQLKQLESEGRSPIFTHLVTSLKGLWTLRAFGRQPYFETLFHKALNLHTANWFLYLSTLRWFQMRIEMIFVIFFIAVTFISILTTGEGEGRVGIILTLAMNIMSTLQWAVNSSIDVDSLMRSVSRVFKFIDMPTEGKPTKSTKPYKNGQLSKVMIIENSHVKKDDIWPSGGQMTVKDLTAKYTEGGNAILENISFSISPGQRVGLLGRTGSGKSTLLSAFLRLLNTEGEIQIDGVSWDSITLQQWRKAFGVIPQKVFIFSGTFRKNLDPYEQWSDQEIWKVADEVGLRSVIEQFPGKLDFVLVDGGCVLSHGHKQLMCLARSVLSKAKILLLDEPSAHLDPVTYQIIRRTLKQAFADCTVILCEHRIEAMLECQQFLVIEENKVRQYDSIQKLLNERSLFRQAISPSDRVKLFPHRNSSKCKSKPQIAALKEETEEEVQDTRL

At human wildtype CFTR, `Cc1ccc(C2Nc3ccccc3-n3c(-c4ccccc4)c4c(=O)n(C)c(=O)n(C)c4c32)o1` (stereo not shown) [PPQ-102, 7,9-Dimethyl-6-(5-methylfuran-2-yl)-11-phenyl-5,6-dihydropyrimido[4′,5′-3,4]pyrrolo[1,2-a]quinoxaline-8,10-(7H,9H)-dione, reference compound] showed an IC50 of 250 nM. The solubility in the series “Aqueous solubility” (albumin-free saline, saline or isotonic, read-out: water solubility) was roughly 2 µM (≈ 0.877 µg/mL). Besides, the “compound in serum, kidney, and urine” value in series [1] (30-60 min after intravenous bolus of 300 μg in mice, LC/MS sensitivity better than 100 nM) was “undetectable”.

On to `Cn1c(=O)c2c(-c3ccccc3)n3c(c2n(C)c1=O)C(c1ccc(Br)o1)Oc1ccc(C(=O)O)cc1-3` (racemic) [BPO-27, 6-(5-Bromofuran-2-yl)-7,9-dimethyl-8,10-dioxo-11-phenyl-7,8,9,10-tetrahydro-6H-benzo[b]pyrimido[4′,5′:3,4]pyrrolo[1,2-d][1,4]oxazine-2-carboxylic acid], for which inhibition on human wildtype CFTR was half-maximal at 40 nM (IC50). In addition, the solubility in “Aqueous solubility” (pH 7.4 aqueous phosphate buffer, read-out: solubility) was determined as 17 µM (≈ 9.32 µg/mL). Moreover, in series [1] (male, CD1, mouse, in vivo, ip, 300 μg, mice, bolus intraperitoneal administration, read-out: t1/2 for disappearance of the original compound (converted)), the half-life was roughly 120 min. In series [1] (mice, for many hours following single intraperitoneal dose), the “compound concentration in kidney, blood and urine” value was “greater than 4 nM”.

Usually IC50 stands for the concentration at which inhibition is half-maximal. Read a low IC50 as greater potency. A word on the solubility: it is how much of the substance goes into solution per volume.
